Laboratory results taken from ChEMBL document CHEMBL5143602, “Design, synthesis and antibacterial evaluation of pleuromutilin derivatives” (Bioorg Med Chem, 2022).
Values after ≈ are worked out from the molar mass of the structure shown.

Tests used:
[1] = tested on: Staphylococcus aureus; assay: Antibacterial activity against methicillin-sensitive Staphylococcus aureus ATCC 29213 assessed as inhibition of bacterial growth incubated for 18 hrs by two-fold serial dilution method; format: functional
[2] = tested on: Staphylococcus aureus; assay: Antibacterial activity against methicillin-resistant Staphylococcus aureus ATCC 43300 assessed as inhibition of bacterial growth incubated for 18 hrs by two-fold serial dilution method; format: functional
[3] = tested on: Enterococcus faecium; assay: Antibacterial activity against Enterococcus faecium ATCC19434 assessed as inhibition of bacterial growth incubated for 18 hrs by two-fold serial dilution method; format: functional
[4] = tested on: Staphylococcus epidermidis; assay: Antibacterial activity against Staphylococcus epidermidis ATCC12228 assessed as inhibition of bacterial growth incubated for 18 hrs by two-fold serial dilution method; format: functional
[5] = tested on: HepG2; assay: Cytotoxicity against human HepG2 cells assessed as cell growth inhibition measured after 72 hrs by MTT assay; format: functional, cell-based; conditions: HepG2, 72 h
[6] = tested on: U-87 MG; assay: Cytotoxicity against human U87 cells assessed as cell growth inhibition measured after 72 hrs by MTT assay; format: functional, cell-based, U-87MG ATCC
[7] = tested on: HGC-27; assay: Cytotoxicity against human HGC-27 cells assessed as cell growth inhibition measured after 72 hrs by MTT assay; format: functional, cell-based; conditions: HGC-27, 72 h
[8] = tested on: HT-29; assay: Cytotoxicity against human HT-29 cells assessed as cell growth inhibition measured after 72 hrs by MTT assay; format: functional, cell-based; conditions: HT-29, 72 h
[9] = tested on: MCF7; assay: Cytotoxicity against human MCF7 cells assessed as cell growth inhibition measured after 72 hrs by MTT assay; format: functional, cell-based; conditions: MCF7, 72 h
[10] = tested on: Mycoplasmoides pneumoniae; assay: Antibacterial activity against Mycoplasma pneumoniae ATCC15531 assessed as inhibition of bacterial growth incubated for 18 hrs by two-fold serial dilution method; format: functional
[11] = tested on: Mycoplasmoides pneumoniae; assay: Antibacterial activity against Mycoplasma pneumoniae ATCC29342 assessed as inhibition of bacterial growth incubated for 18 hrs by two-fold serial dilution method; format: functional

| MIC [10] | MIC [11] | Structure (SMILES) | MIC [1] | MIC [2] | MIC [3] | MIC [4] | IC50 [5] | IC50 [6] | IC50 [7] | IC50 [8] | IC50 [9] |
| --- | --- | --- | --- | --- | --- | --- | --- | --- | --- | --- | --- |
| – | – | C=C[C@]1(C)C[C@@H](OC(=O)CNC(=O)Nc2cc(Cl)cc(Cl)c2)[C@]2(C)[C@H](C)CC[C@]3(CCC(=O)[C@H]32)[C@@H](C)[C@@H]1O | 0.5 µg/mL (≈ 0.884 µM) | 0.5 µg/mL (≈ 0.884 µM) | 32 µg/mL (≈ 56.6 µM) | > 64 µg/mL | – | – | – | – | – |
| – | – | C=C[C@]1(C)C[C@@H](OC(=O)CNC(=S)NC(=O)c2ccccc2)[C@]2(C)[C@H](C)CC[C@]3(CCC(=O)[C@H]32)[C@@H](C)[C@@H]1O | > 64 µg/mL | > 64 µg/mL | 32 µg/mL (≈ 59.2 µM) | > 64 µg/mL | – | – | – | – | – |
| – | – | C=C[C@]1(C)C[C@@H](OC(=O)CNC(=S)NC(=O)c2ccc(Br)cc2)[C@]2(C)[C@H](C)CC[C@]3(CCC(=O)[C@H]32)[C@@H](C)[C@@H]1O | 16 µg/mL (≈ 25.8 µM) | 16 µg/mL (≈ 25.8 µM) | 16 µg/mL (≈ 25.8 µM) | > 64 µg/mL | – | – | – | – | – |
| – | – | C=C[C@]1(C)C[C@@H](OC(=O)CNC(=O)Nc2ccccc2Cl)[C@]2(C)[C@H](C)CC[C@]3(CCC(=O)[C@H]32)[C@@H](C)[C@@H]1O | 0.5 µg/mL (≈ 0.941 µM) | 0.5 µg/mL (≈ 0.941 µM) | 8 µg/mL (≈ 15.1 µM) | > 64 µg/mL | – | – | – | – | – |
| – | – | C=C[C@]1(C)C[C@@H](OC(=O)CNC(=S)Nc2ccccc2)[C@]2(C)[C@H](C)CC[C@]3(CCC(=O)[C@H]32)[C@@H](C)[C@@H]1O | 1 µg/mL (≈ 1.95 µM) | 1 µg/mL (≈ 1.95 µM) | 16 µg/mL (≈ 31.2 µM) | > 64 µg/mL | – | – | – | – | – |
| – | – | C=C[C@]1(C)C[C@@H](OC(=O)CNC(=S)Nc2ccc(OC)cc2)[C@]2(C)[C@H](C)CC[C@]3(CCC(=O)[C@H]32)[C@@H](C)[C@@H]1O | 1 µg/mL (≈ 1.84 µM) | 0.5 µg/mL (≈ 0.921 µM) | 16 µg/mL (≈ 29.5 µM) | > 64 µg/mL | – | – | – | – | – |
| – | – | C=C[C@]1(C)C[C@@H](OC(=O)CNC(=O)NC(=O)c2cccc(F)c2)[C@]2(C)[C@H](C)CC[C@]3(CCC(=O)[C@H]32)[C@@H](C)[C@@H]1O | 0.5 µg/mL (≈ 0.921 µM) | 0.25 µg/mL (≈ 0.461 µM) | 16 µg/mL (≈ 29.5 µM) | > 64 µg/mL | > 10 µM | > 10 µM | > 10 µM | > 10 µM | > 10 µM |
| – | – | C=C[C@]1(C)C[C@@H](OC(=O)CNC(=S)NCCCCCCCCCCCCCCCCCC)[C@]2(C)[C@H](C)CC[C@]3(CCC(=O)[C@H]32)[C@@H](C)[C@@H]1O | 4 µg/mL (≈ 5.8 µM) | 2 µg/mL (≈ 2.9 µM) | 32 µg/mL (≈ 46.4 µM) | > 64 µg/mL | – | – | – | – | – |
| – | – | C=C[C@]1(C)C[C@@H](OC(=O)CNC(=O)Nc2cccc(C)c2)[C@]2(C)[C@H](C)CC[C@]3(CCC(=O)[C@H]32)[C@@H](C)[C@@H]1O | 0.125 µg/mL (≈ 0.245 µM) | 0.5 µg/mL (≈ 0.979 µM) | 16 µg/mL (≈ 31.3 µM) | > 64 µg/mL | – | – | – | – | – |
| – | – | C=C[C@]1(C)C[C@@H](OC(=O)CNC(=S)Nc2ccc3ccccc3c2)[C@]2(C)[C@H](C)CC[C@]3(CCC(=O)[C@H]32)[C@@H](C)[C@@H]1O | 16 µg/mL (≈ 28.4 µM) | 4 µg/mL (≈ 7.11 µM) | 32 µg/mL (≈ 56.9 µM) | > 64 µg/mL | – | – | – | – | – |
| – | – | C=C[C@]1(C)C[C@@H](OC(=O)CNC(=O)NC2CCCCC2)[C@]2(C)[C@H](C)CC[C@]3(CCC(=O)[C@H]32)[C@@H](C)[C@@H]1O | 2 µg/mL (≈ 3.98 µM) | 2 µg/mL (≈ 3.98 µM) | 8 µg/mL (≈ 15.9 µM) | > 64 µg/mL | – | – | – | – | – |
| – | – | C=C[C@]1(C)C[C@@H](OC(=O)CNC(=S)Nc2ccc(C(F)(F)F)cc2)[C@]2(C)[C@H](C)CC[C@]3(CCC(=O)[C@H]32)[C@@H](C)[C@@H]1O | 1 µg/mL (≈ 1.72 µM) | 1 µg/mL (≈ 1.72 µM) | 8 µg/mL (≈ 13.8 µM) | > 64 µg/mL | – | – | – | – | – |
| – | – | C=C[C@]1(C)C[C@@H](OC(=O)CNC(=O)NCC)[C@]2(C)[C@H](C)CC[C@]3(CCC(=O)[C@H]32)[C@@H](C)[C@@H]1O | 2 µg/mL (≈ 4.46 µM) | 2 µg/mL (≈ 4.46 µM) | 32 µg/mL (≈ 71.3 µM) | > 64 µg/mL | – | – | – | – | – |
| – | – | C=C[C@]1(C)C[C@@H](OC(=O)CNC(=O)Nc2ccccc2-c2ccccc2)[C@]2(C)[C@H](C)CC[C@]3(CCC(=O)[C@H]32)[C@@H](C)[C@@H]1O | 4 µg/mL (≈ 6.98 µM) | 4 µg/mL (≈ 6.98 µM) | 32 µg/mL (≈ 55.9 µM) | > 64 µg/mL | – | – | – | – | – |
| – | – | C=C[C@]1(C)C[C@@H](OC(=O)CNC(=O)Nc2ccccc2)[C@]2(C)[C@H](C)CC[C@]3(CCC(=O)[C@H]32)[C@@H](C)[C@@H]1O | 0.5 µg/mL (≈ 1.01 µM) | 0.5 µg/mL (≈ 1.01 µM) | 32 µg/mL (≈ 64.4 µM) | > 64 µg/mL | – | – | – | – | – |
| – | – | C=C[C@]1(C)C[C@@H](OC(=O)CNC(=S)Nc2ccccc2C)[C@]2(C)[C@H](C)CC[C@]3(CCC(=O)[C@H]32)[C@@H](C)[C@@H]1O | 4 µg/mL (≈ 7.59 µM) | 2 µg/mL (≈ 3.8 µM) | 16 µg/mL (≈ 30.4 µM) | > 64 µg/mL | – | – | – | – | – |
| – | – | C=C[C@]1(C)C[C@@H](OC(=O)CNC(=S)Nc2ccc(F)cc2)[C@]2(C)[C@H](C)CC[C@]3(CCC(=O)[C@H]32)[C@@H](C)[C@@H]1O | 1 µg/mL (≈ 1.88 µM) | 0.25 µg/mL (≈ 0.471 µM) | 16 µg/mL (≈ 30.1 µM) | > 64 µg/mL | – | – | – | – | – |
| – | – | C=C[C@]1(C)C[C@@H](OC(=O)CNC(=O)Nc2cccc(Cl)c2)[C@]2(C)[C@H](C)CC[C@]3(CCC(=O)[C@H]32)[C@@H](C)[C@@H]1O | 1 µg/mL (≈ 1.88 µM) | 0.5 µg/mL (≈ 0.941 µM) | 8 µg/mL (≈ 15.1 µM) | > 64 µg/mL | – | – | – | – | – |
| – | – | C=C[C@]1(C)C[C@@H](OC(=O)CNC(=O)NCCC)[C@]2(C)[C@H](C)CC[C@]3(CCC(=O)[C@H]32)[C@@H](C)[C@@H]1O | 2 µg/mL (≈ 4.32 µM) | 2 µg/mL (≈ 4.32 µM) | 32 µg/mL (≈ 69.2 µM) | > 64 µg/mL | – | – | – | – | – |
| – | – | C=C[C@]1(C)C[C@@H](OC(=O)CNC(=S)NC(=O)c2ccc(F)cc2)[C@]2(C)[C@H](C)CC[C@]3(CCC(=O)[C@H]32)[C@@H](C)[C@@H]1O | 4 µg/mL (≈ 7.16 µM) | 4 µg/mL (≈ 7.16 µM) | 8 µg/mL (≈ 14.3 µM) | > 64 µg/mL | – | – | – | – | – |
| – | – | C=C[C@]1(C)C[C@@H](OC(=O)CNC(=O)Nc2cccc3ccccc23)[C@]2(C)[C@H](C)CC[C@]3(CCC(=O)[C@H]32)[C@@H](C)[C@@H]1O | 2 µg/mL (≈ 3.66 µM) | 2 µg/mL (≈ 3.66 µM) | 16 µg/mL (≈ 29.3 µM) | > 64 µg/mL | – | – | – | – | – |
| – | – | C=C[C@]1(C)C[C@@H](OC(=O)CNC(=S)NC(C)=O)[C@]2(C)[C@H](C)CC[C@]3(CCC(=O)[C@H]32)[C@@H](C)[C@@H]1O | 2 µg/mL (≈ 4.18 µM) | 2 µg/mL (≈ 4.18 µM) | 16 µg/mL (≈ 33.4 µM) | > 64 µg/mL | – | – | – | – | – |
| – | – | C=C[C@]1(C)C[C@@H](OC(=O)CNC(=O)Nc2ccc(Cl)cc2)[C@]2(C)[C@H](C)CC[C@]3(CCC(=O)[C@H]32)[C@@H](C)[C@@H]1O | 0.25 µg/mL (≈ 0.471 µM) | 0.25 µg/mL (≈ 0.471 µM) | 16 µg/mL (≈ 30.1 µM) | > 64 µg/mL | > 10 µM | > 10 µM | > 10 µM | > 10 µM | > 10 µM |
| – | – | C=C[C@]1(C)C[C@@H](OC(=O)CNC(=S)NC2CCCCC2)[C@]2(C)[C@H](C)CC[C@]3(CCC(=O)[C@H]32)[C@@H](C)[C@@H]1O | 1 µg/mL (≈ 1.93 µM) | 1 µg/mL (≈ 1.93 µM) | 32 µg/mL (≈ 61.7 µM) | > 64 µg/mL | – | – | – | – | – |
| 1 µg/mL (≈ 1.74 µM) | 0.5 µg/mL (≈ 0.869 µM) | C=C[C@]1(C)C[C@@H](OC(=O)CNC(=O)Nc2ccc(Br)cc2)[C@]2(C)[C@H](C)CC[C@]3(CCC(=O)[C@H]32)[C@@H](C)[C@@H]1O | – | – | 8 µg/mL (≈ 13.9 µM) | > 64 µg/mL | > 10 µM | > 10 µM | > 10 µM | > 10 µM | > 10 µM |
| – | – | C=C[C@]1(C)C[C@@H](OC(=O)CNC(=S)NC(=O)c2ccc(Cl)cc2)[C@]2(C)[C@H](C)CC[C@]3(CCC(=O)[C@H]32)[C@@H](C)[C@@H]1O | 16 µg/mL (≈ 27.8 µM) | 16 µg/mL (≈ 27.8 µM) | 8 µg/mL (≈ 13.9 µM) | > 64 µg/mL | – | – | – | – | – |
